In US20220062371A1, “LIGAND-DRUG-CONJUGATES AS SUBSTRATES FOR SELECTIVE CLEAVAGE BY THE EXOPEPTIDASE ACTIVITY OF CATHEPSIN B” (DEBIOPHARM RESEARCH & MANUFACTURING S.A., priority 2017, published 2022):
Like-named read-outs stand apart in the source and are kept apart here. Non-standard residues stand in square brackets, D forms with d. Residues, ends and D or L forms follow the SMILES beside them. Groups on a side chain read outwards from the residue. *: point of attachment. DM1Mal(CH2)2CO = COc1cc2cc(c1Cl)N(C)C(=O)C[C@H](OC(=O)[C@H](C)N(C)C(=O)CCSC1CC(=O)N(CCC(=O)*)C1=O)[C@]1(C)O[C@H]1[C@H](C)[C@@H]1C[C@@](O)(NC(=O)O1)[C@H](OC)/C=C/C=C(\C)C2; X2 = CC(=O)N[C@@H](CSC1CC(=O)N(CCC(=O)*)C1=O)C(=O)O; Dolaproine = CO[C@@H]([C@@H]1CCCN1)[C@@H](C)C(=O)O; Dil = CC[C@H](C)[C@H](NC)[C@@H](CC(=O)O)OC; NMe2Val = CC(C)[C@@H](C(=O)*)N(C)C; PEG5 = NCCOCCOCCOCCOCCOCCC(=O)O; PEG4 = NCCOCCOCCOCCOCCC(=O)O

Target: T1, recombinant human Cathepsin B (Homo sapiens, UniProt P07858)
T1 construct: purchased R&D Systems (Bio-Techne AG) 953-CY-010
Assay: Recombinant human Cathepsin B-induced cleavage (in vitro enzymatic cleavage assay, UHPLC-MS/MS)
Format: biochemical
Settings: for half-life at 10 μM: human, Cathepsin B 2 μg/mL, 25 mM MES buffer pH 5.0, 37° C., read-out: T1/2 Compound; for Ratio (T1/2 Compound/T1/2 Reference): reference Cys-MC-Val-Cit-PABC-MMAF; for cleavage rate compared to reference PABC compound (times faster): versus Cys-MC-Val-Cit-PABC-MMAF
Method: Cat B-induced cleavage of the compounds of the present invention was evaluated according to the in vitro enzymatic cleavage assay using recombinant human Cathepsin B and UHPLC-MS/MS analysis as described below.
Reference compounds Cys-MC-Val-Cit-PABC-MMAF and MMAF were used as positive controls.
The in vitro enzymatic assay was conducted at 37° C. with the test compounds at a concentration of 10 μM (2.5 μM when the test compound is an antibody-drug conjugate) in the presence of activated recombinant human Cathepsin B enzyme at 2 μg/mL in a 25 mM MES buffer pH 5.0. The enzymatic cleavage reaction was stopped for each defined time point by mixing an equal volume of acetonitrile+0.1% FA containing an internal standard (warfarine at 8 μM).
Analysis was conducted using a Waters Acquity UPLC System coupled to a Waters Xevo TQ triple quad mass spectrometer. UHPLC was conducted depending on the test compounds with a BEH C8 1.7 μm 100×2.1 mm or BEH C18 1.7 μm 50×2.1 mm or HSS T3 1.7 μm 50×2.1 mm columns heated at 45° C. or 50° C. and fitted with 2 μm insert filter pre-columns (available from Waters), and solvent systems A1 (H2O+0.1% FA) and B1 (acetonitrile+0.1% FA) at a flow rate of 0.6 mL/min and a 10-95% gradient of B1 over 1.9 min.
MS/MS was performed using electrospray ionization (ESI) interface in positive mode and specific MRM transitions for each tested compound.

Molecule	half-life at 10 μM (10 μM test compound) [min]	Ratio (T1/2 Compound/T1/2 Reference)	cleavage rate compared to reference PABC compound (times faster)	Cat B-induced cleavage, in words	half-life at 10 μM (pH 5, 10 μM test compound) [min]
CC[C@H](C)[C@@H]([C@@H](CC(=O)N1CCC[C@H]1[C@H](OC)[C@@H](C)C(=O)N[C@@H](Cc1ccccc1)C(=O)NCCCC[C@H](NC(=O)[C@H](CCCNC(=N)N)NC(=O)[C@H](CCCCNC(=O)CCN1C(=O)CC(SCCC(=O)N(C)[C@@H](C)C(=O)O[C@H]2CC(=O)N(C)c3cc(cc(OC)c3Cl)C/C(C)=C/C=C/[C@@H](OC)[C@@]3(O)C[C@H](OC(=O)N3)[C@@H](C)[C@@H]3O[C@@]23C)C1=O)NC(=O)[C@H](CCCNC(=N)N)NC(=O)[C@H](Cc1ccccc1)NC(=O)CCOCCOCCOCCOCCNC(=O)CCN1C(=O)CC(SC[C@H](NC(C)=O)C(=O)O)C1=O)C(=O)N[C@@H](Cc1ccccc1)C(=O)O)OC)N(C)C(=O)[C@@H](NC(=O)[C@H](C(C)C)N(C)C)C(C)C (stereo partly drawn) [Compound 30, Ac-Cys-Mal-PEG4-Phe-Arg-Lys(Mal-DM1)-Arg-Lys(AF)-Phe-OH] ({X2-PEG4}-FRK(DM1Mal(CH2)2CO)RK([Phe-Dolaproine-Dil-Val-NMe2Val])F-OH)	1.1	0.07	more than 10 fold	–	–
CC[C@H](C)[C@@H]([C@@H](CC(=O)N1CCC[C@H]1[C@H](OC)[C@@H](C)C(=O)N[C@@H](Cc1ccccc1)C(=O)N[C@@H](CCCNC(N)=O)C(=O)N[C@@H](CCCCn1cc(COC(=O)NCCCC[C@H](NC(=O)CCOCCOCCOCCOCCOCCNC(=O)CCN2C(=O)CC(SC[C@H](NC(C)=O)C(=O)O)C2=O)C(=O)NCCOCCOCCOCCOCCOCCC(=O)N[C@@H](CCCCNC(=O)OCc2cn(CCCC[C@H](NC(=O)[C@H](CCCNC(N)=O)NC(=O)[C@H](Cc3ccccc3)NC(=O)[C@H](C)[C@@H](OC)[C@@H]3CCCN3C(=O)C[C@@H](OC)[C@H]([C@@H](C)CC)N(C)C(=O)[C@@H](NC(=O)[C@H](C(C)C)N(C)C)C(C)C)C(=O)N[C@@H](Cc3ccccc3)C(=O)O)nn2)C(=O)NCC(N)=O)nn1)C(=O)N[C@@H](Cc1ccccc1)C(=O)O)OC)N(C)C(=O)[C@@H](NC(=O)[C@H](C(C)C)N(C)C)C(C)C (stereo partly drawn) [Compound 32, Ac-Cys-Mal-[PEG5-Lys(AF-Cit-Lys(Y)-Phe-OH)]2-Gly-NH2]	0.98	0.06	~20 fold	–	–
Arg-PEG4-[Phe-Arg-Glu(Sar-OCPT)-Arg]2-OH [Compound 18]	–	–	–	rapidly released	–
CC[C@H](C)[C@@H]([C@@H](CC(=O)N1CCC[C@H]1[C@H](OC)[C@@H](C)C(=O)N[C@@H](Cc1ccccc1)C(=O)N[C@@H](CCCNC(=N)N)C(=O)N[C@@H](CCCCNC(=O)CCOCCOCCOCCOCCOCCNC(=O)CCN1C(=O)CC(SC[C@H](NC(C)=O)C(=O)O)C1=O)C(=O)N[C@@H](Cc1ccccc1)C(=O)O)OC)N(C)C(=O)[C@@H](NC(=O)[C@H](C(C)C)N(C)C)C(C)C (stereo partly drawn) [Compound 1, AF-Arg-Lys(PEG4-Mal-Cys-Ac)-Phe-OH] (NMe2Val-V[Dil][Dolaproine]FRK([PEG5-X2])F-OH)	–	0.12	–	–	1.5
COc1cc2cc(c1Cl)N(C)C(=O)C[C@H](OC(=O)[C@H](C)N(C)C(=O)CCSC1CC(=O)N(CCC(=O)NCCCC[C@H](NC(=O)[C@H](CCCCN)NC(=O)[C@H](Cc3ccccc3)NC(=O)[C@H](Cc3ccccc3)NC(=O)[C@H](CCCCNC(=O)CCN3C(=O)CC(SCCC(=O)N(C)[C@@H](C)C(=O)O[C@H]4CC(=O)N(C)c5cc(cc(OC)c5Cl)C/C(C)=C/C=C/[C@@H](OC)[C@@]5(O)C[C@H](OC(=O)N5)[C@@H](C)[C@@H]5O[C@@]45C)C3=O)NC(=O)[C@H](CCCCN)NC(=O)[C@H](Cc3ccccc3)NC(=O)CCOCCOCCOCCOCCNC(=O)CCN3C(=O)CC(SC[C@H](NC(C)=O)C(=O)O)C3=O)C(=O)N[C@@H](Cc3ccccc3)C(=O)O)C1=O)[C@]1(C)O[C@H]1[C@H](C)[C@@H]1C[C@@](O)(NC(=O)O1)[C@H](OC)/C=C/C=C(\C)C2 (stereo partly drawn) [Compound 29, Ac-Cys-Mal-PEG4-[Phe-Lys-Lys(Mal-DM1)-Phe]2-OH] ({X2-PEG4}-FKK(DM1Mal(CH2)2CO)FFKK(DM1Mal(CH2)2CO)F-OH)	2.4	0.23	~5 fold	–	–
